Reference: ChEMBL document CHEMBL3421568, “Discovery and preliminary evaluation of 2-aminobenzamide and hydroxamate derivatives containing 1,2,4-oxadiazole moiety as potent histone deacetylase inhibitors” (Eur J Med Chem, 2015)

Tests used:
cells [1] = format: functional, cell-based; conditions: Homo sapiens, U-937, 72 h
Description: Antiproliferative activity against human U937 cells assessed as inhibition of cell growth after 72 hrs by MTT-based assay

Histone deacetylase 2 = Histone deacetylase 2 (Homo sapiens, UniProt Q92769); assay: Inhibition of recombinant HDAC2 (unknown origin) using fluorogenic substrate Boc-Lys (acetyl)-AMC after 20 mins by homogeneous fluorescence release assay
A549 = assay: Antiproliferative activity against human A549 cells assessed as inhibition of cell growth after 72 hrs by MTT-based assay; format: functional; conditions: A549, 72 h
Histone deacetylase 1 = Histone deacetylase 1 (Homo sapiens, UniProt Q13547); assay: Inhibition of recombinant HDAC1 (unknown origin) using fluorogenic substrate Boc-Lys (acetyl)-AMC after 20 mins by homogeneous fluorescence release assay
MDA-MB-231 = assay: cells; format: functional, cell-based; conditions: Homo sapiens, MDA-MB-231, 72 h
Description: Antiproliferative activity against human MDA-MB-231 cells assessed as inhibition of cell growth after 72 hrs by MTT-based assay

Histone deacetylase 8 = target: T1, Histone deacetylase 8 (Homo sapiens, UniProt Q9BY41); assay: Inhibition of recombinant HDAC8 (unknown origin) using fluorogenic substrate Boc-Lys (acetyl)-AMC after 20 mins by homogeneous fluorescence release assay
T1 sequence (Q9BY41 whole entry): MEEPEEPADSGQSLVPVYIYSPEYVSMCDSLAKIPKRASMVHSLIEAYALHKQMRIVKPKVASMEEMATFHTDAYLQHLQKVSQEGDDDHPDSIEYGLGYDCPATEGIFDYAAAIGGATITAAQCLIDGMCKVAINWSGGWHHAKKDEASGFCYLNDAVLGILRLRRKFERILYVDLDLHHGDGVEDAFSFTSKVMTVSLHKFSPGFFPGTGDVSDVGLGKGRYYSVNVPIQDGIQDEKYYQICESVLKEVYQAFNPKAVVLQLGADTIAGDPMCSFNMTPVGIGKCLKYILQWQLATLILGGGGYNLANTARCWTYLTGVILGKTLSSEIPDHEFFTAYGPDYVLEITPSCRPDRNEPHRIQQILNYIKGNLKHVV

NCI-H661 = assay: Antiproliferative activity against human NCI-H661 cells assessed as inhibition of cell growth after 72 hrs by MTT-based assay; format: functional; conditions: NCI-H661, 72 h
cells [2] = format: functional, cell-based; conditions: Homo sapiens, HCT-116, 72 h
Description: Antiproliferative activity against human HCT116 cells assessed as inhibition of cell growth after 72 hrs by MTT-based assay

Chain of Histone deacetylase 2 (Q92769 whole entry): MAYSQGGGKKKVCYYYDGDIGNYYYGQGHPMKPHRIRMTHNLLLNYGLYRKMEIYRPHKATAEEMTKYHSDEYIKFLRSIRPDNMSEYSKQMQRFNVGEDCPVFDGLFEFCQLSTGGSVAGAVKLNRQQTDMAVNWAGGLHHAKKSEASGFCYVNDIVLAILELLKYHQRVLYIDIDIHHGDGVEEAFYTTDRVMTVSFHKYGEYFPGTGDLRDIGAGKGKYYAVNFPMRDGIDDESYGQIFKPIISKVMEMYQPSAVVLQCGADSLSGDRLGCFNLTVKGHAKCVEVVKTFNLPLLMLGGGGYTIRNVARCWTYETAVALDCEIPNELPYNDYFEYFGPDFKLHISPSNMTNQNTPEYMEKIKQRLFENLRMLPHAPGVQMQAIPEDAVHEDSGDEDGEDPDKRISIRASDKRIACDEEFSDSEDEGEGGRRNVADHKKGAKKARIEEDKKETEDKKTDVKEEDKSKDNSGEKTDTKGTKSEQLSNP
Chain of Histone deacetylase 1 (Q13547 whole entry): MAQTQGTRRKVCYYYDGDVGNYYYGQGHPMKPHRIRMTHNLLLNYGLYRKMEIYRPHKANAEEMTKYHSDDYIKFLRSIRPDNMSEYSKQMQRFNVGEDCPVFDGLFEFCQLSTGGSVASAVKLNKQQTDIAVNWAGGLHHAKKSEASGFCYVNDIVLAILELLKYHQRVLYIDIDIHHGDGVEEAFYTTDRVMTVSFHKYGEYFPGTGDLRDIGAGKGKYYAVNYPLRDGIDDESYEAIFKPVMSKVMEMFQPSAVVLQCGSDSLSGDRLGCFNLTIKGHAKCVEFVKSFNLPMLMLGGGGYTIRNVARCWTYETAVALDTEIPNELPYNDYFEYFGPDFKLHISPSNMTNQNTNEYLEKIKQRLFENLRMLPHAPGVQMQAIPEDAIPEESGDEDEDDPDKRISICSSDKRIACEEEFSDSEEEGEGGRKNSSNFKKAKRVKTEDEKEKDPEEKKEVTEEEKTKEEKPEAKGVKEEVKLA

Row | Structure (SMILES) | IC50 (cells [1]) [µM] | IC50 (Histone deacetylase 2) [µM] | IC50 (A549) [µM] | IC50 (Histone deacetylase 1) [µM] | IC50 (MDA-MB-231) [µM] | IC50 (Histone deacetylase 8) [µM] | IC50 (NCI-H661) [µM] | IC50 (cells [2]) [µM]
1 | Nc1ccccc1NC(=O)c1ccc(CNCc2nc(-c3ccccc3)no2)cc1 | 1.63 | 0.53 | 10.8 | 0.28 | 7.69 | > 10 | 11.8 | 8.63
2 | Cc1ccc(-c2noc(CNCc3ccc(C(=O)Nc4ccccc4N)cc3)n2)cc1 | 0.97 | 0.56 | 9.81 | 0.21 | 5.81 | > 10 | 7.39 | 6.55
3 | COc1ccc(-c2noc(CNCc3ccc(C(=O)Nc4ccccc4N)cc3)n2)cc1 | 1.09 | 0.29 | 7.95 | 0.18 | 5.53 | > 10 | 5.77 | 4.37
4 | Nc1ccccc1NC(=O)c1ccc(CNCc2nc(-c3ccc(C(F)(F)F)cc3)no2)cc1 | 2.58 | 5.93 | 100 | 2.75 | 6.87 | > 10 | 23.5 | 19.7
5 | Nc1ccccc1NC(=O)c1ccc(CNCc2nc(-c3ccc(Cl)cc3)no2)cc1 | 0.43 | 0.43 | 13.5 | 0.09 | 5.12 | > 10 | 8 | 6.81
6 | Nc1ccccc1NC(=O)c1ccc(CNCc2nc(-c3ccc([N+](=O)[O-])cc3)no2)cc1 | 0.52 | 0.15 | 6.39 | 0.06 | 3.18 | > 10 | 4.73 | 2.33
7 | Nc1ccccc1NC(=O)c1ccc(CNCc2nc(-c3ccc(F)cc3)no2)cc1 | 1.25 | 0.28 | 10.7 | 0.11 | 2.95 | > 10 | 4.36 | 3.51
8 | Nc1ccccc1NC(=O)c1ccc(CNCc2nc(-c3cccs3)no2)cc1 | 5.96 | 4.39 | > 100 | 3.85 | 10.3 | > 10 | 35.8 | 27.2
9 | Nc1ccccc1NC(=O)c1ccc(CNCc2nc(-c3cccnc3)no2)cc1 | 11 | 8.37 | > 100 | 5.26 | 21.2 | > 10 | 100 | 43.6
10 | Nc1ccccc1NC(=O)c1ccc(CNCc2nc(-c3ccccc3Cl)no2)cc1 | 0.38 | 0.32 | 7.92 | 0.07 | 3.57 | > 10 | 3.33 | 1.23
11 | O=C(NO)c1ccc(CNCc2nc(-c3ccccc3)no2)cc1 | 7.21 | > 10 | > 100 | 5.73 | 14.7 | 0.2 | > 100 | 29.3
12 | Cc1ccc(-c2noc(CNCc3ccc(C(=O)NO)cc3)n2)cc1 | 7.83 | > 10 | > 100 | 6.86 | 15.4 | 1.25 | > 100 | 27.8
13 | COc1ccc(-c2noc(CNCc3ccc(C(=O)NO)cc3)n2)cc1 | 3.45 | > 10 | > 100 | 8.32 | 8.93 | 0.86 | > 100 | 18.6
14 | O=C(NO)c1ccc(CNCc2nc(-c3ccc(C(F)(F)F)cc3)no2)cc1 | 8.05 | > 10 | > 100 | 9.63 | 12.3 | 1.36 | > 100 | 43.1
15 | O=C(NO)c1ccc(CNCc2nc(-c3ccc(Cl)cc3)no2)cc1 | 5.29 | 8.52 | > 100 | 3.85 | 10.9 | 0.35 | > 100 | 30.2
16 | O=C(NO)c1ccc(CNCc2nc(-c3ccc([N+](=O)[O-])cc3)no2)cc1 | 6.52 | 9.23 | > 100 | 2.67 | 9.56 | 0.38 | > 100 | 21.9
17 | O=C(NO)c1ccc(CNCc2nc(-c3ccc(F)cc3)no2)cc1 | 2.95 | 7.69 | > 100 | 3.53 | 9.12 | 0.23 | > 100 | 17.8
18 | O=C(NO)c1ccc(CNCc2nc(-c3cccs3)no2)cc1 | 10.7 | > 10 | > 100 | > 10 | 23.9 | 8.26 | > 100 | > 100
19 | Nc1ccccc1NC(=O)c1ccc(CNC(=O)OCc2cccnc2)cc1 [ENTINOSTAT] | 0.55 | – | 5.41 | – | 4.63 | – | 2.19 | 0.78
20 | O=C(CCCCCCC(=O)Nc1ccccc1)NO [VORINOSTAT] | – | – | – | – | – | – | 0.13 | –
